Results reported in ChEMBL document CHEMBL1122324, “New antihypertensive cannabinoids” (1983).

Assays:
Conditions in all cases: route oral
[1] = tested on: Rattus norvegicus; test: percentage decrease in heart rate after 4 hr at a dose of 3 mg/kg administered perorally in rats; type: functional
[2] = tested on: Rattus norvegicus; test: Percentage decrease in systolic blood pressure after 6 hr at 10 mg/kg administered perorally in rats; type: functional, Artery
[3] = tested on: Rattus norvegicus; test: percentage decrease in heart rate after 24 hr at a dose of 1 mg/kg administered perorally in rats; type: functional
[4] = tested on: Rattus norvegicus; test: Percentage decrease in systolic blood pressure after 1 hr at 0.3 mg/kg administered perorally in rats; type: functional, Artery
[5] = tested on: Rattus norvegicus; test: percentage decrease in heart rate after 24 hr at a dose of 10 mg/kg administered perorally in rats; type: functional
[6] = tested on: Rattus norvegicus; test: Percentage decrease in systolic blood pressure after 1 hr at 30 mg/kg administered perorally in rats; type: functional, Artery
[7] = tested on: Rattus norvegicus; test: percentage decrease in heart rate after 4 hr at a dose of 0.3 mg/kg administered perorally in rats; type: functional
[8] = tested on: Rattus norvegicus; test: Percentage decrease in systolic blood pressure after 4 hr at 3 mg/kg administered perorally in rats; type: functional, Artery
[9] = tested on: Rattus norvegicus; test: Percentage decrease in systolic blood pressure after 4 hr at 10 mg/kg administered perorally in rats; type: functional, Artery
[10] = tested on: Rattus norvegicus; test: percentage decrease in heart rate after 24 hr at a dose of 3 mg/kg administered perorally in rats; type: functional
[11] = tested on: Rattus norvegicus; test: percentage decrease in heart rate after 1 hr at a dose of 0.3 mg/kg administered perorally in rats; type: functional
[12] = tested on: Rattus norvegicus; test: percentage decrease in heart rate after 1 hr at a dose of 10 mg/kg administered perorally in rats; type: functional
[13] = tested on: Rattus norvegicus; test: percentage decrease in heart rate after 6 hr at a dose of 3 mg/kg administered perorally in rats; type: functional
[14] = tested on: Rattus norvegicus; test: percentage decrease in heart rate after 1 hr at a dose of 30 mg/kg administered perorally in rats; type: functional
[15] = tested on: Rattus norvegicus; test: Percentage decrease in systolic blood pressure after 6 hr at 0.3 mg/kg administered perorally in rats; type: functional, Artery
[16] = tested on: Rattus norvegicus; test: Percentage decrease in systolic blood pressure after 1 hr at 3 mg/kg administered perorally in rats; type: functional, Artery
[17] = tested on: Rattus norvegicus; test: percentage decrease in heart rate after 6 hr at a dose of 30 mg/kg administered perorally in rats; type: functional
[18] = tested on: Rattus norvegicus; test: percentage decrease in heart rate after 4 hr at a dose of 10 mg/kg administered perorally in rats; type: functional
[19] = tested on: Rattus norvegicus; test: percentage decrease in heart rate after 6 hr at a dose of 10 mg/kg administered perorally in rats; type: functional
[20] = tested on: Rattus norvegicus; test: percentage decrease in heart rate after 1 hr at a dose of 1 mg/kg administered perorally in rats; type: functional
[21] = tested on: Rattus norvegicus; test: Percentage decrease in systolic blood pressure after 24 hr at 3 mg/kg administered perorally in rats; type: functional, Artery
[22] = tested on: Rattus norvegicus; test: percentage decrease in heart rate after 1 hr at a dose of 3 mg/kg administered perorally in rats; type: functional
[23] = tested on: Rattus norvegicus; test: Percentage decrease in systolic blood pressure after 24 hr at 30 mg/kg administered perorally in rats; type: functional, Artery
[24] = tested on: Rattus norvegicus; test: Percentage decrease in systolic blood pressure after 24 hr at 1 mg/kg administered perorally in rats; type: functional, Artery
[25] = tested on: Rattus norvegicus; test: percentage decrease in heart rate after 4 hr at a dose of 1 mg/kg administered perorally in rats; type: functional
[26] = tested on: Rattus norvegicus; test: percentage decrease in heart rate after 24 hr at a dose of 0.3 mg/kg administered perorally in rats; type: functional
[27] = tested on: Rattus norvegicus; test: Percentage decrease in systolic blood pressure after 4 hr at 0.3 mg/kg administered perorally in rats; type: functional, Artery
[28] = tested on: Rattus norvegicus; test: Percentage decrease in systolic blood pressure after 1 hr at 10 mg/kg administered perorally in rats; type: functional, Artery
[29] = tested on: Rattus norvegicus; test: Percentage decrease in systolic blood pressure after 4 hr at 1 mg/kg administered perorally in rats; type: functional, Artery
[30] = tested on: Rattus norvegicus; test: Percentage decrease in systolic blood pressure after 6 hr at 30 mg/kg administered perorally in rats; type: functional, Artery
[31] = tested on: Rattus norvegicus; test: Percentage decrease in systolic blood pressure after 6 hr at 3 mg/kg administered perorally in rats; type: functional, Artery
[32] = tested on: Rattus norvegicus; test: Percentage decrease in systolic blood pressure after 6 hr at 1 mg/kg administered perorally in rats; type: functional, Artery
[33] = tested on: Rattus norvegicus; test: Percentage decrease in systolic blood pressure after 24 hr at 10 mg/kg administered perorally in rats; type: functional, Artery
[34] = tested on: Rattus norvegicus; test: Percentage decrease in systolic blood pressure after 24 hr at 0.3 mg/kg administered perorally in rats; type: functional, Artery
[35] = tested on: Rattus norvegicus; test: percentage decrease in heart rate after 6 hr at a dose of 0.3 mg/kg administered perorally in rats; type: functional
[36] = tested on: Rattus norvegicus; test: Percentage decrease in systolic blood pressure after 4 hr at 30 mg/kg administered perorally in rats; type: functional, Artery
[37] = tested on: Rattus norvegicus; test: Percentage decrease in systolic blood pressure after 1 hr at 1 mg/kg administered perorally in rats; type: functional, Artery
[38] = tested on: Rattus norvegicus; test: percentage decrease in heart rate after 4 hr at a dose of 30 mg/kg administered perorally in rats; type: functional
[39] = tested on: Rattus norvegicus; test: percentage decrease in heart rate after 6 hr at a dose of 1 mg/kg administered perorally in rats; type: functional
[40] = tested on: Rattus norvegicus; test: Percentage decrease in systolic blood pressure (heart rate) after 24 hr at 100 mg/kg administered perorally in rats; type: functional, Artery
[41] = tested on: Rattus norvegicus; test: Percentage decrease in systolic blood pressure (heart rate) after 4 hr at 100 mg/kg administered perorally in rats; type: functional, Artery
[42] = tested on: Rattus norvegicus; test: Effect on spontaneous motor activity in rats after 2 hr at 1 mg/kg given perorally; type: functional
[43] = tested on: Rattus norvegicus; test: Effect on spontaneous motor activity in rats after 2 hr at 0.1 mg/kg given perorally; type: functional
[44] = tested on: Rattus norvegicus; test: Cumulative effect on spontaneous motor activity in rats at 0.1 mg/kg given perorally; type: functional
[45] = tested on: Rattus norvegicus; test: Effect on spontaneous motor activity in rats after 1 hr at 0.1 mg/kg given perorally; type: functional
[46] = tested on: Rattus norvegicus; test: Effect on spontaneous motor activity in rats after 2 hr at 0.3 mg/kg given perorally; type: functional
[47] = tested on: Rattus norvegicus; test: Percentage decrease in systolic blood pressure (heart rate) after 1 hr at 3 mg/kg administered perorally in rats; type: functional, Artery
[48] = tested on: Rattus norvegicus; test: Percentage decrease in systolic blood pressure (heart rate) after 1 hr at 10 mg/kg administered perorally in rats; type: functional, Artery
[49] = tested on: Rattus norvegicus; test: Percentage decrease in systolic blood pressure (heart rate) after 24 hr at 0.3 mg/kg administered perorally in rats; type: functional, Artery
[50] = tested on: Rattus norvegicus; test: Percentage decrease in systolic blood pressure (heart rate) after 24 hr at 1 mg/kg administered perorally in rats; type: functional, Artery
[51] = tested on: Rattus norvegicus; test: Effect on spontaneous motor activity in rats after 1 hr at 3 mg/kg given perorally; type: functional
[52] = tested on: Rattus norvegicus; test: Percentage decrease in systolic blood pressure (heart rate) after 4 hr at 1 mg/kg administered perorally in rats; type: functional, Artery
[53] = tested on: Rattus norvegicus; test: Effect on spontaneous motor activity in rats after 1 hr at 10 mg/kg given perorally; type: functional
[54] = tested on: Rattus norvegicus; test: Effect on spontaneous motor activity in rats after 2 hr at 30 mg/kg given perorally; type: functional
[55] = tested on: Rattus norvegicus; test: Percentage decrease in systolic blood pressure (heart rate) after 4 hr at 10 mg/kg administered perorally in rats; type: functional, Artery
[56] = tested on: Rattus norvegicus; test: Percentage decrease in systolic blood pressure (heart rate) after 6 hr at 1 mg/kg administered perorally in rats; type: functional, Artery
[57] = tested on: Rattus norvegicus; test: Percentage decrease in systolic blood pressure (heart rate) after 4 hr at 3 mg/kg administered perorally in rats; type: functional, Artery
[58] = tested on: Rattus norvegicus; test: Percentage decrease in systolic blood pressure (heart rate) after 24 hr at 10 mg/kg administered perorally in rats; type: functional, Artery
[59] = tested on: Rattus norvegicus; test: Cumulative effect on spontaneous motor activity in rats at 3 mg/kg given perorally; type: functional
[60] = tested on: Rattus norvegicus; test: Cumulative effect on spontaneous motor activity in rats at 300 mg/kg given perorally; type: functional
[61] = tested on: Rattus norvegicus; test: Percentage decrease in systolic blood pressure (heart rate) after 4 hr at 0.3 mg/kg administered perorally in rats; type: functional, Artery
[62] = tested on: Rattus norvegicus; test: Percentage decrease in systolic blood pressure (heart rate) after 6 hr at 0.3 mg/kg administered perorally in rats; type: functional, Artery
[63] = tested on: Rattus norvegicus; test: Percentage decrease in systolic blood pressure (heart rate) after 1 hr at 0.3 mg/kg administered perorally in rats; type: functional, Artery
[64] = tested on: Rattus norvegicus; test: Effect on spontaneous motor activity in rats after 2 hr at 10 mg/kg given perorally; type: functional
[65] = tested on: Rattus norvegicus; test: Percentage decrease in systolic blood pressure (heart rate) after 6 hr at 3 mg/kg administered perorally in rats; type: functional, Artery
[66] = tested on: Rattus norvegicus; test: Effect on spontaneous motor activity in rats after 1 hr at 1 mg/kg given perorally; type: functional
[67] = tested on: Rattus norvegicus; test: Effect on spontaneous motor activity in rats after 2 hr at 3 mg/kg given perorally; type: functional
[68] = tested on: Rattus norvegicus; test: Effect on spontaneous motor activity in rats after 1 hr at 30 mg/kg given perorally; type: functional
[69] = tested on: Rattus norvegicus; test: Effect on spontaneous motor activity in rats after 1 hr at 0.3 mg/kg given perorally; type: functional
[70] = tested on: Rattus norvegicus; test: Cumulative effect on spontaneous motor activity in rats at 0.3 mg/kg given perorally; type: functional

C#CCN1CCC2=C(C1)c1c(O)cc(C(C)CCCc3ccc(F)cc3)cc1OC2(C)C (stereo not given)
Heart rate [1]: 10% | Decrease in Systolic blood pressure [2]: 20% | Heart rate [3]: -18% | Decrease in Systolic blood pressure [4]: -5% | Heart rate [5]: -6% | Decrease in Systolic blood pressure [6]: 33% | Heart rate [7]: -10% | Decrease in Systolic blood pressure [8]: 27% | Decrease in Systolic blood pressure [9]: 30% | Heart rate [10]: -14% | Heart rate [11]: -29% | Heart rate [12]: -3% | Heart rate [13]: -7% | Heart rate [14]: 5% | Decrease in Systolic blood pressure [15]: -5% | Decrease in Systolic blood pressure [16]: 8% | Heart rate [17]: 36% | Heart rate [18]: -2% | Heart rate [19]: 1% | Heart rate [20]: -9% | Decrease in Systolic blood pressure [21]: 11% | Heart rate [22]: -7% | Decrease in Systolic blood pressure [23]: 43% | Decrease in Systolic blood pressure [24]: 9% | Heart rate [25]: 3% | Heart rate [26]: -5% | Decrease in Systolic blood pressure [27]: -7% | Decrease in Systolic blood pressure [28]: 34% | Decrease in Systolic blood pressure [29]: 17% | Decrease in Systolic blood pressure [30]: 26% | Decrease in Systolic blood pressure [31]: 9% | Decrease in Systolic blood pressure [32]: 5% | Decrease in Systolic blood pressure [33]: 20% | Decrease in Systolic blood pressure [34]: -3% | Heart rate [35]: -12% | Decrease in Systolic blood pressure [36]: 23% | Decrease in Systolic blood pressure [37]: 1% | Heart rate [38]: 16% | Heart rate [39]: 5%

CCCCCc1cc(O)c2c(c1)OC(C)(C)[C@@H]1CCC(C)=C[C@@H]21 [DRONABINOL]
Decrease in Systolic blood pressure [40]: 21% | Decrease in Systolic blood pressure [41]: 39%

CCCCCCCc1cc(O)c2c(c1)OC(C)(C)c1ccc(C)cc1-2
Activity [42]: 87% | Activity [43]: 10% | Activity [44]: -2% | Activity [45]: -3% | Activity [46]: 28% | Decrease in Systolic blood pressure [47]: 3% | Decrease in Systolic blood pressure [48]: 9% | Decrease in Systolic blood pressure [49]: 0% | Decrease in Systolic blood pressure [50]: -7% | Activity [51]: -20% | Decrease in Systolic blood pressure [52]: 20% | Activity [53]: -46% | Activity [54]: -94% | Decrease in Systolic blood pressure [55]: 58% | Decrease in Systolic blood pressure [56]: 33% | Decrease in Systolic blood pressure [57]: 44% | Decrease in Systolic blood pressure [58]: 29% | Activity [59]: -20% | Activity [60]: -89% | Decrease in Systolic blood pressure [61]: 10% | Decrease in Systolic blood pressure [62]: 2% | Decrease in Systolic blood pressure [63]: 3% | Activity [64]: -98% | Decrease in Systolic blood pressure [65]: 38% | Activity [66]: -32% | Activity [67]: -17% | Activity [68]: -88% | Activity [69]: -21% | Activity [70]: -17%
